According to patent publication US12162904B2, “Mannose derivative and application thereof” (priority 2021, dated 2024):

Key:
[1] = Determination of lipid-water partition coefficient (n-octanol/PBS); assay type: physicochemical; details: n-octanol / PBS 0.025 M, pH 7.4
Protocol: To a 5 mL centrifuge tube were added 100 μL of a ^99mTc-CN7DM solution with a radioactivity of 10 μCi, 1 mL of n-octanol and 900 μL of phosphate buffered saline (PBS) (0.025 M and pH 7.4). The mixture was vortexed at a rotation speed of 2,500 rpm for 3 min, subjected to standing for stratification, and centrifuged at 9,000 rpm in a centrifuge for 5 min. Three samples (each for 100 μL) were taken from each of the two phases, and determined by a γ-counter for the radioactivity counts.

[2] = Stability in normal saline at room temperature (radiochemical purity by TLC); assay type: physicochemical; details: 4 h
Protocol: (§1) The radiochemical purity of ^99mTc-CN7DM was determined by TLC after being placed in normal saline at room temperature and in mouse serum at 37° C. for 4 h.

[3] = Stability in mouse serum at 37° C. (radiochemical purity by TLC); assay type: in vitro ADME; details: 4 h
Protocol: as §1

[4] = system: mice bearing S180 tumors; assay: Biodistribution determination in tumor-bearing mice; assay type: in vivo; details: for Blood uptake / Bone uptake / Heart uptake / Kidney uptake / Liver uptake / Lung uptake / Muscle uptake / Small intestine uptake / Spleen uptake / Thyroid gland uptake / Tumor uptake: n = 5, mean ± SD; for Tumor uptake: S180 tumor
Protocol: 0.1 mL of the ^99mTc-CN7DM labeling solution (370 kBq) was injected into mice bearing S180 tumors through the tail vein. After recording the injection time, the mice were subjected to sacrificing by cervical […] at different time points of 30 min and 120 min (5 mice were executed at each time), dissecting, taking out tissues or organs of interest such as heart, liver, lungs, kidneys, spleen, bone, muscles, small intestine, blood and tumors. A radioactivity count of each of the tissues or organs was measured by the γ-counter, and uptake value of each of the tissues or organs in % ID/g was obtained by converting a mass of each of the tissues or organs.

[5] = 30 min after tail vein injection
[6] = 120 min after tail vein injection

For `[99Tc+].[C-]#[N+]CCCCCCCC(=O)NC1C(O)OC(CO)C(O)C1O.[C-]#[N+]CCCCCCCC(=O)NC1C(O)OC(CO)C(O)C1O.[C-]#[N+]CCCCCCCC(=O)NC1C(O)OC(CO)C(O)C1O.[C-]#[N+]CCCCCCCC(=O)NC1C(O)OC(CO)C(O)C1O.[C-]#[N+]CCCCCCCC(=O)NC1C(O)OC(CO)C(O)C1O.[C-]#[N+]CCCCCCCC(=O)NC1C(O)OC(CO)C(O)C1O` (centres unmarked) [^99mTc-CN7DM], the “log P (lipid-water partition coefficient)” value [1] was −3.15±0.06, the “radiochemical purity after standing (stability)” value [2] was “greater than 90%” and the “radiochemical purity after standing (stability)” value [3] was “greater than 90%”. The Tumor/Blood ratio [4, 5] was 3.79, the Tumor/Muscle ratio [4, 5] was 3.25 and the Blood uptake [4, 5] was 1.61 ± 0.17 % ID/g. For the same compound, the Bone uptake [4, 5] was 1.41 ± 0.17 % ID/g, the Heart uptake [4, 5] was 2.08 ± 0.26 % ID/g and the Kidney uptake [4, 5] was 6.22 ± 0.91 % ID/g. The Liver uptake [4, 5] was 2.91 ± 0.23 % ID/g, the Lung uptake [4, 5] was 1.86 ± 0.19 % ID/g and the Muscle uptake [4, 5] was 1.88 ± 0.16 % ID/g. The Small intestine uptake [4, 5] was 1.05 ± 0.20 % ID/g, the Spleen uptake [4, 5] was 1.23 ± 0.11 % ID/g and the Thyroid gland uptake [4, 5] was 0.04 ± 0.01 % ID. The Tumor/Blood ratio [4, 6] was 63.48, the Tumor/Muscle ratio [4, 6] was 6.18 and the Blood uptake [4, 6] was 0.09 ± 0.02 % ID/g. The Bone uptake [4, 6] was 0.76 ± 0.17 % ID/g, the Heart uptake [4, 6] was 1.40 ± 0.14 % ID/g and the Kidney uptake [4, 6] was 3.12 ± 0.82 % ID/g. The Liver uptake [4, 6] was 2.13 ± 0.46 % ID/g, the Lung uptake [4, 6] was 0.76 ± 0.20 % ID/g and the Muscle uptake [4, 6] was 0.96 ± 0.12 % ID/g. For the same compound, the Small intestine uptake [4, 6] was 0.42 ± 0.13 % ID/g, the Spleen uptake [4, 6] was 0.80 ± 0.15 % ID/g and the Thyroid gland uptake [4, 6] was 0.02 ± 0.00 % ID. The Tumor uptake [4, 5] was 6.11 ± 0.76 % ID/g and the Tumor uptake [4, 6] was 5.92 ± 0.30 % ID/g.
